What was measured:
human GST-HPK1 (1-346) = biological target: T1, human GST-HPK1 (1-346) (Homo sapiens, UniProt Q92918); test: HPK1 enzyme inhibitory ability (ADP-Glo kinase assay); assay type: biochemical; conditions: human GST-HPK1 3 ng, ATP 3 uM, 25° C. 2 hours
T1 construct: purified human GST-HPK1 (1-346, Signalchem) enzyme; purchased Signalchem
T1 sequence (Q92918 1-346): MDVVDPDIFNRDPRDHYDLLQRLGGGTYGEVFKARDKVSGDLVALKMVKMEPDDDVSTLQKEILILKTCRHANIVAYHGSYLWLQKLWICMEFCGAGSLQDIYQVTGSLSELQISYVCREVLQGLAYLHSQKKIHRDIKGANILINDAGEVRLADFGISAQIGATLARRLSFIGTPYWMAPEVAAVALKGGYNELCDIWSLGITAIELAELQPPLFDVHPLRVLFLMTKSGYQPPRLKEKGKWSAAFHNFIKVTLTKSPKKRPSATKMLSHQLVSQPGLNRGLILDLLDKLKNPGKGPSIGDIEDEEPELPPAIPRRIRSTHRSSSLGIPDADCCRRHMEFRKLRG
Outline: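 Human GST-HPK1(1-346), 3 ng, reacted with 3 uM ATP and specific substrate in 40 mM Tris-HCl pH 7.4, 20 mM MgCl2, 0.5 mg/mL BSA, 50 uM DTT for 2 h at 25° C. ADP-Glo luminescence read; IC50 (nM) relative to untreated solvent control.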

CDK4-cyclinD1 [1] = biological target: T2, CDK4-cyclinD1 (Homo sapiens, UniProt P11802); test: CDK4 enzyme inhibitory ability (Reaction Biology); assay type: biochemical; set-up: purchased Reaction Biology (USA), contract assay; conditions: measured in Reaction Biology (USA)
Description: (§1) In order to evaluate the CDK4 and CDK6 enzyme inhibitory activities of the example compounds according to the present invention, IC5O (nM) was measured for the CDK4 cyclin D1 and CDK6 cyclin D1 enzymes in Reaction Biology (USA), and the results were shown in Table 3 below.

MET(M1250T) = biological target: T3, MET(M1250T) (Homo sapiens, UniProt P08581, M1250T); test: scanMAX kinase assay panel; assay type: binding; conditions: read-out: control percentage (% control)
T3 construct: purchased DiscoverX scanMAX kinase assay panel
Description: (§2) The activities of the compounds according to the present invention to more diverse enzymes were evaluated. Specifically, it was decided that the enzyme selectivity of Example 74 selected from the compounds of Examples 1 to 129 was measured at the request of DiscoverX, and the experiment was conducted using a scanMAX™ kinase assay panel. At this time, as a drug to treat the enzyme, a solution prepared by dissolving in DMSO at a concentration of 1 μM was used, and the control percentage (% control) was determined by the method of Equation 1 below, and the results were shown in Table 2 below.
(§3) In Equation above, the positive control and negative control mean compounds showing control percentages of 0% and 100% as DMSO, respectively.

PAK3 = biological target: T4, PAK3 (Homo sapiens, UniProt O75914); test: scanMAX kinase assay panel; assay type: binding; conditions: read-out: control percentage (% control)
T4 construct: purchased DiscoverX scanMAX kinase assay panel
Description: as §2, §3

MET = biological target: T5, MET (Homo sapiens, UniProt P08581); test: scanMAX kinase assay panel; assay type: binding; conditions: read-out: control percentage (% control)
T5 construct: purchased DiscoverX scanMAX kinase assay panel
Description: as §2, §3

CLK4 = biological target: T6, CLK4 (Homo sapiens, UniProt Q9HAZ1); test: scanMAX kinase assay panel; assay type: binding; conditions: read-out: control percentage (% control)
T6 construct: purchased DiscoverX (scanMAX panel, contract assay)
Description: as §2, §3

ARK5 = biological target: T7, ARK5 (Homo sapiens, UniProt O60285); test: scanMAX kinase assay panel; assay type: binding; conditions: read-out: control percentage (% control)
T7 construct: purchased DiscoverX (scanMAX panel, contract assay)
Description: as §2, §3

DYRK1B = biological target: T8, DYRK1B (Homo sapiens, UniProt Q9Y463); test: scanMAX kinase assay panel; assay type: binding; conditions: read-out: control percentage (% control)
T8 construct: purchased DiscoverX scanMAX kinase assay panel
Description: as §2, §3

AXL = biological target: T9, AXL (Homo sapiens, UniProt P30530); test: scanMAX kinase assay panel; assay type: binding; conditions: read-out: control percentage (% control)
T9 construct: purchased DiscoverX (scanMAX panel, contract assay)
Description: as §2, §3

TNIK = biological target: T10, TNIK (Homo sapiens, UniProt Q9UKE5); test: scanMAX kinase assay panel; assay type: binding; conditions: read-out: control percentage (% control)
T10 construct: purchased DiscoverX
Description: as §2, §3

RET(V804M) = biological target: T11, RET(V804M) (Homo sapiens, UniProt P07949, V804M); test: scanMAX kinase assay panel; assay type: binding; conditions: read-out: control percentage (% control)
T11 construct: purchased DiscoverX scanMAX kinase assay panel
Description: as §2, §3

PIK4CB = biological target: T12, PIK4CB (Homo sapiens, UniProt Q9UBF8); test: scanMAX kinase assay panel; assay type: binding; conditions: read-out: control percentage (% control)
T12 construct: purchased DiscoverX scanMAX kinase assay panel
Description: as §2, §3

TRKC = biological target: T13, TRKC (Homo sapiens, UniProt Q16288); test: scanMAX kinase assay panel; assay type: binding; conditions: read-out: control percentage (% control)
T13 construct: purchased DiscoverX
Description: as §2, §3

MCF-7 cells = test: Breast cancer cell line proliferation inhibitory activity (CellTiter-Glo 2.0); assay type: cell-based; conditions: Homo sapiens, MCF7, 120 hours
Outline: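 MCF-7 cells exposed to a 12-point, 3-fold dilution series (final 0.00005–10 μM) for 120 h at 37 °C. Viability read by CellTiter-Glo 2.0 luminescence, expressed as percent of vehicle-treated cells. GI50 (nM) derived from the curves.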

CDK4-cyclinD1 [2] = biological target: T2, CDK4-cyclinD1; test: scanMAX kinase assay panel; assay type: binding; set-up: purchased DiscoverX (scanMAX panel, contract assay); conditions: read-out: control percentage (% control)
Description: as §2, §3

CDK6 cyclin D1 = biological target: T14, CDK6 cyclin D1 (Homo sapiens, UniProt Q00534); test: CDK6 enzyme inhibitory ability (Reaction Biology); assay type: biochemical; conditions: measured in Reaction Biology (USA)
T14 construct: purchased Reaction Biology (USA), contract assay
Description: as §1

T2 sequence (P11802 whole entry): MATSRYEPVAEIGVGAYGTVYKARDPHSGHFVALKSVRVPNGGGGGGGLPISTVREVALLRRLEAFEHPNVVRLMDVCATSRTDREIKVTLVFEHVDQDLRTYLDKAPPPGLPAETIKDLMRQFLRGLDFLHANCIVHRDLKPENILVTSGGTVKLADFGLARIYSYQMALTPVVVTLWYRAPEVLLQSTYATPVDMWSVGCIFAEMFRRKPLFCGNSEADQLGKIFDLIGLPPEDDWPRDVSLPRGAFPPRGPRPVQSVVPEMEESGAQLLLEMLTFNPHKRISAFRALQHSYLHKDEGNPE
T2 sequence (P24385 whole entry partner): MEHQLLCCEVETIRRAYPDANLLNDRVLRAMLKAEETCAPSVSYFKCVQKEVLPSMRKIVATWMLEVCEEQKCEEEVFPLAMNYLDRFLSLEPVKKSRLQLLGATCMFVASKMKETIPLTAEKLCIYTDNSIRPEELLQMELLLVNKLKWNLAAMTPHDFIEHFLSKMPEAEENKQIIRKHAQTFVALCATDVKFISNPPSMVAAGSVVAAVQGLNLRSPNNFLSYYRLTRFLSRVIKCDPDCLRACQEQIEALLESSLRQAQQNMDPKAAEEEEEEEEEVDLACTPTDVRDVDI
T13 sequence (Q16288 32-839): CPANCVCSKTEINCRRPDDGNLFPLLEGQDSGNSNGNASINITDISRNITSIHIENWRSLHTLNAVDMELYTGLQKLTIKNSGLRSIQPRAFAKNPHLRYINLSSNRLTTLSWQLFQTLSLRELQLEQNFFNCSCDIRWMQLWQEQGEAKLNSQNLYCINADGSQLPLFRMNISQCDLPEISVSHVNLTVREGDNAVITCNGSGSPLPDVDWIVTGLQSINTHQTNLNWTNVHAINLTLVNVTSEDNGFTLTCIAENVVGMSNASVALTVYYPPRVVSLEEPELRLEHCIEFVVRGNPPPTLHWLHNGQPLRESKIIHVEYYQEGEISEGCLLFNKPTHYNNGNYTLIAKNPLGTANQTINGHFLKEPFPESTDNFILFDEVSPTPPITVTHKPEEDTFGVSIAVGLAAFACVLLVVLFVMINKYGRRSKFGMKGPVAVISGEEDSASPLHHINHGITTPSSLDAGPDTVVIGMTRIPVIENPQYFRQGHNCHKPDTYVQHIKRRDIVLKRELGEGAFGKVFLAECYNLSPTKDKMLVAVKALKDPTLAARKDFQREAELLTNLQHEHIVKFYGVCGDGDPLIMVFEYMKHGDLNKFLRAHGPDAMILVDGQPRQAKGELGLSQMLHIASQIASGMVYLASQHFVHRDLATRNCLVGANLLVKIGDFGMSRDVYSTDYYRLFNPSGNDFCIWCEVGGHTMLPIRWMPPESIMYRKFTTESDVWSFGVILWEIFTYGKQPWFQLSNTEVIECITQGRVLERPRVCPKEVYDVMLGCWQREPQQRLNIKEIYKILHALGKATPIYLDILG
T5 sequence (P08581 25-1390): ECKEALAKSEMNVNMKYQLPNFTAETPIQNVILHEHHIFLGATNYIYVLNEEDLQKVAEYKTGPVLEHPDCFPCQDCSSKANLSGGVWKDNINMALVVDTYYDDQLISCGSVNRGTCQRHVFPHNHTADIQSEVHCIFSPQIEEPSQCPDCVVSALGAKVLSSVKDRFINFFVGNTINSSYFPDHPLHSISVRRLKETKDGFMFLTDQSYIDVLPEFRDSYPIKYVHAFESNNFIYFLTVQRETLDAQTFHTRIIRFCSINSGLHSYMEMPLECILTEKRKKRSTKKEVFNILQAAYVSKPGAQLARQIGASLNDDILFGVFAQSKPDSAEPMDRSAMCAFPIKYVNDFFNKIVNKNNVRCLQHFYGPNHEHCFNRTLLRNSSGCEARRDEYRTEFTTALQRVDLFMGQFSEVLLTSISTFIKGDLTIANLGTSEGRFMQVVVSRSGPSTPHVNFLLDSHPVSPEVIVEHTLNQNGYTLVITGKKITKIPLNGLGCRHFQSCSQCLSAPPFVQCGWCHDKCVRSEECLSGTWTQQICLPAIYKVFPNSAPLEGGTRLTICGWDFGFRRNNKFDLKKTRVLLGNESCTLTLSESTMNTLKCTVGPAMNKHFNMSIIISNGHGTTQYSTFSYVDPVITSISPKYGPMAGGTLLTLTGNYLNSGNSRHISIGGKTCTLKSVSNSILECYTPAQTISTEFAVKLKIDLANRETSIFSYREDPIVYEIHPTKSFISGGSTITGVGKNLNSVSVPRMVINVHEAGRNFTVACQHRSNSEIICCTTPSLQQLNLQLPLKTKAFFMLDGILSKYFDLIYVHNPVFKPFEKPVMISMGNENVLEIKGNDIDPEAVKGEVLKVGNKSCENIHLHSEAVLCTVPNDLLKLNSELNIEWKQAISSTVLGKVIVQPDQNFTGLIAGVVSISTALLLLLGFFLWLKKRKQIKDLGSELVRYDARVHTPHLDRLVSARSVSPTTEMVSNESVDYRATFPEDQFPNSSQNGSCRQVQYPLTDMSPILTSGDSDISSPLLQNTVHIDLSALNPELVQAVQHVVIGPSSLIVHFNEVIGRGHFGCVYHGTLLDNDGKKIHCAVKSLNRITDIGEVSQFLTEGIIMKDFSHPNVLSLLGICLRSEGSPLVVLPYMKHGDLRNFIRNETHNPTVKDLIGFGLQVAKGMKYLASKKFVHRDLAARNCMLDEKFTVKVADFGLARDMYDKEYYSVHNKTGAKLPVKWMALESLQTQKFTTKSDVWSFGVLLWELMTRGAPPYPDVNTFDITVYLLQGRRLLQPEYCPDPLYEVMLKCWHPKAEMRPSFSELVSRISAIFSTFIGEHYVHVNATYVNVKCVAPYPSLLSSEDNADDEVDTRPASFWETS
T7 sequence (O60285 whole entry): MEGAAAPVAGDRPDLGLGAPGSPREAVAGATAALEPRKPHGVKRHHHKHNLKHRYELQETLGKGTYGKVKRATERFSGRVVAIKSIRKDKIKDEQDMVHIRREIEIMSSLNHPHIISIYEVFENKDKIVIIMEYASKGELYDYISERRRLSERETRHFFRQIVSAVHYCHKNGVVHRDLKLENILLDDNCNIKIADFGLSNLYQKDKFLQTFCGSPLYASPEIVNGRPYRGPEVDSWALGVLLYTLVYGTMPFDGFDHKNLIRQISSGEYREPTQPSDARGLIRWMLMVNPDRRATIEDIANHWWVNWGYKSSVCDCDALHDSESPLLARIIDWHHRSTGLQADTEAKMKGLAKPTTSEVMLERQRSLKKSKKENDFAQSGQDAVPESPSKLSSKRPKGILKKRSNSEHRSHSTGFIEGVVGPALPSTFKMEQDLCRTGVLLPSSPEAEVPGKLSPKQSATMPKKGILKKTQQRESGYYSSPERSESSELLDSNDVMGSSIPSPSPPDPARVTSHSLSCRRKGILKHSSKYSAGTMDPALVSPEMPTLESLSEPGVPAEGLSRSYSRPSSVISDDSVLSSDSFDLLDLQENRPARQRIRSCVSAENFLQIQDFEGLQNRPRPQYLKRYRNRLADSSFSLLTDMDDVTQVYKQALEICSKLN
T9 sequence (P30530 26-894): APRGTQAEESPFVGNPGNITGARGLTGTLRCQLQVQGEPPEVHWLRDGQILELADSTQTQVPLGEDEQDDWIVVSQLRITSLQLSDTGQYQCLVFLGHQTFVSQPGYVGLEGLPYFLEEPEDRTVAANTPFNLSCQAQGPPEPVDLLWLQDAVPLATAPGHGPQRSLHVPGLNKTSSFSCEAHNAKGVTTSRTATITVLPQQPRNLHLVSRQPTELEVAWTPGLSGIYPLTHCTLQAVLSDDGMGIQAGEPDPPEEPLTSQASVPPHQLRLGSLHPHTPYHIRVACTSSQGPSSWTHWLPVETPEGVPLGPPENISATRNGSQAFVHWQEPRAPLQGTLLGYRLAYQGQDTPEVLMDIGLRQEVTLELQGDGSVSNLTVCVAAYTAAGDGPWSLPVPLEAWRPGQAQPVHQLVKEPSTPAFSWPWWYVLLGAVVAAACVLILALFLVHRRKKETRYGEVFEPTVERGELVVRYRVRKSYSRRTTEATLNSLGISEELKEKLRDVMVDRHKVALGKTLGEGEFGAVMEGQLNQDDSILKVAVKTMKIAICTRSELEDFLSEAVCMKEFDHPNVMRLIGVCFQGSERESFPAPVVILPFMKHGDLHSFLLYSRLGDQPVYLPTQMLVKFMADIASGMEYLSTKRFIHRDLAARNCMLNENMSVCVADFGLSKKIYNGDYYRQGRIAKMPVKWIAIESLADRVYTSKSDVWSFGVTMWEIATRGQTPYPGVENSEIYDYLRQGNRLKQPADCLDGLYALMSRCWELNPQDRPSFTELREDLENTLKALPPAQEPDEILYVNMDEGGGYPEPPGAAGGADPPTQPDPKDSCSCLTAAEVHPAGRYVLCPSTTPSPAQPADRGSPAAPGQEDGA
T4 sequence (O75914 whole entry): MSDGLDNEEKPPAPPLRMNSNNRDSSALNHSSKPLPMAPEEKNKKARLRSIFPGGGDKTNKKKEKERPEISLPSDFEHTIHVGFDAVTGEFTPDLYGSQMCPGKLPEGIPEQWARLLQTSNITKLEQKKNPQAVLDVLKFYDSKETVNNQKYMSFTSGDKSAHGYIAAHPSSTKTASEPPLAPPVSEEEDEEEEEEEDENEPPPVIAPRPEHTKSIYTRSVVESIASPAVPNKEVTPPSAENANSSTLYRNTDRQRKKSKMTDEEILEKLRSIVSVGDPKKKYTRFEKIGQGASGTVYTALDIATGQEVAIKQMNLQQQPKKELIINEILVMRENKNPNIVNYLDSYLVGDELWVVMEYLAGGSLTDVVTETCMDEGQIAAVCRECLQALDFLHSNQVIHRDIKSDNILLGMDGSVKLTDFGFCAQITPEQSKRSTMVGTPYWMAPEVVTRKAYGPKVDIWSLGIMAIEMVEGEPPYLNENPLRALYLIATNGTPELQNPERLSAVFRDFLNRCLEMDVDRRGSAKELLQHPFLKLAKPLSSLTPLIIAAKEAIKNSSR

## CN1CCN(c2ccc(Nc3nc(N4OCC[C@H]4c4ccccc4)c4cc[nH]c4n3)cc2)CC1 [Example 74, (S)-N-(4-(4-methylpiperazin-1-yl)phenyl)-4-(3-phenylisoxazolidin-2-yl)-7H-pyrrolo[2,3-d]pyrimidin-2-amine]
Human GST-HPK1 (1-346)
  IC50: ≥ 250 nM
CDK4-cyclinD1 [1]
  IC50: ≥ 250 nM
MET(M1250T)
  remaining binding at 1 µM: 11%
PAK3
  remaining binding at 1 µM: 23%
MET
  remaining binding at 1 µM: 4.5%
CLK4
  remaining binding at 1 µM: 6.4%
ARK5
  remaining binding at 1 µM: 8.9%
DYRK1B
  remaining binding at 1 µM: 11%
AXL
  remaining binding at 1 µM: 3.2%
TNIK
  remaining binding at 1 µM: 27%
RET(V804M)
  remaining binding at 1 µM: 3.9%
PIK4CB
  remaining binding at 1 µM: 16%
TRKC
  remaining binding at 1 µM: 21%
MCF-7 cells
  GI50: > 500 nM
CDK4-cyclinD1 [2]
  remaining binding at 1 µM: 0.55%
CDK6 cyclin D1
  IC50: ≥ 250 nM
